Laboratory results as given in patent US20230271954A1 (Gossamer Bio Services, Inc., priority 2020, published 2023).

Tests used:
DGKα = DGKα (Homo sapiens, UniProt P23743); assay: DGKα biochemical assay (ADP-Glo); details: read-out: DGK α IC50
Method in brief: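 ADP-Glo kinase assay using OAG/PS (1:2) lipid substrate, sonicated, in HEPES pH 7.0 buffer with MgCl2, CaCl2, DTT, BSA, Triton X-100. Enzyme preincubated with compound 30 min at RT; substrate with ATP (DGKα: 400 μM) added, 45 min RT. Luminescence read; % inhibition vs DMSO and no-enzyme controls.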

DGKζ = target: T1, DGKζ (Homo sapiens, UniProt Q13574); assay: DGKζ biochemical assay (ADP-Glo); details: read-out: DGK ζ IC50
T1 construct: purchased Carna 12-110
T1 sequence (Q13574 1-929 isoform Q13574-4): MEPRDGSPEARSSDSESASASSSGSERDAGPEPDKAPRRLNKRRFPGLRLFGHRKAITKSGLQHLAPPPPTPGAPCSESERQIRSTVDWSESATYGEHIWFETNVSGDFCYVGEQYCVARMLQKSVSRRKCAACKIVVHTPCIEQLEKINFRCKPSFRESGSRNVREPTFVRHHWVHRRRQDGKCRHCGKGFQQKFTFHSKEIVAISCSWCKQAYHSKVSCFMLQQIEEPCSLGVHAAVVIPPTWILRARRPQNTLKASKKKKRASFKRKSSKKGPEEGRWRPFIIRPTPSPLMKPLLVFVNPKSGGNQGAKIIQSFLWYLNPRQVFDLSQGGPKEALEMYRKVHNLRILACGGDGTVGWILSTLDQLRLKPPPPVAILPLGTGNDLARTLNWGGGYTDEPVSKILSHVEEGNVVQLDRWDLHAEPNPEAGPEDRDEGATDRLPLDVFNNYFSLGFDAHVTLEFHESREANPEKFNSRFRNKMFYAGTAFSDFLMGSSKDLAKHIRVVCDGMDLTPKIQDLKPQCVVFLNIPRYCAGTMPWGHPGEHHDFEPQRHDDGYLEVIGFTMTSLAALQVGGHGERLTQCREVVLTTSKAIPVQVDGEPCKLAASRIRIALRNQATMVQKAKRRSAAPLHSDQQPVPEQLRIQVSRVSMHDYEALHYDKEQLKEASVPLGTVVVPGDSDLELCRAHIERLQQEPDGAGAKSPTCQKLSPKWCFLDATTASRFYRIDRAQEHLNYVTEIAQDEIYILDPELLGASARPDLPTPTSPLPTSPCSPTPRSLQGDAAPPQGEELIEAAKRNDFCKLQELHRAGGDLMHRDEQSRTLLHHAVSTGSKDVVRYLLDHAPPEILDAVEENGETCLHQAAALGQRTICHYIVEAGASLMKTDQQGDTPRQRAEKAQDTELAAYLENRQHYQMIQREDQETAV

Sequence of DGKα (P23743 whole entry): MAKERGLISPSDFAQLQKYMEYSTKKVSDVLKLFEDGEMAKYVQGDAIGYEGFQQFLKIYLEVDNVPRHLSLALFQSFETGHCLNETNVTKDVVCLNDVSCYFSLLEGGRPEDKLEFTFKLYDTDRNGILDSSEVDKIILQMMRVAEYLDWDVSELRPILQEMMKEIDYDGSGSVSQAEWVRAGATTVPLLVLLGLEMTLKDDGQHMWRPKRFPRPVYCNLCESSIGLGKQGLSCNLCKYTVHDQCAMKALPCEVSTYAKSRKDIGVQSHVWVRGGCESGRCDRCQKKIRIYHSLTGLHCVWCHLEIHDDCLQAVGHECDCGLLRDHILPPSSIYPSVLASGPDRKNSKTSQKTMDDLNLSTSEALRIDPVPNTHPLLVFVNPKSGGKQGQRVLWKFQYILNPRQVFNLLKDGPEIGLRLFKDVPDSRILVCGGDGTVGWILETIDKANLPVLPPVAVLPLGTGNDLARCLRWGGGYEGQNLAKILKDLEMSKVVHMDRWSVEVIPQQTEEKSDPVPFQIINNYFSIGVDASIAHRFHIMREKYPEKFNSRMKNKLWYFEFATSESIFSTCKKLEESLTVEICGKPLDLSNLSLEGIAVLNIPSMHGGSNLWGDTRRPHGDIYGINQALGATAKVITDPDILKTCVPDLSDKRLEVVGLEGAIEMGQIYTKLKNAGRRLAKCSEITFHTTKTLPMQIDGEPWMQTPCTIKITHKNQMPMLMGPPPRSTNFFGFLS

| Compound | IC50 (DGKα) [µM] | IC50 (DGKζ) [µM] |
| --- | --- | --- |
| Cn1c(=O)c(C#N)c(N(C)[C@H]2CC[C@@H](N(CC3CC3)c3ccc(F)c(OC4CC4)c3)CC2)c2nc(C#N)ccc21 [Example 123, cis-8-((-4-((3-cyclopropoxy-4-fluorophenyl) (cyclopropylmethyl)amino)cyclohexyl)(methyl)amino)-5-methyl-6-oxo-5,6-dihydro-1,5-naphthyridine-2,7-dicarbonitrile] | 0.01 to 0.1 | 0.01 to 0.1 |
| Cn1c(=O)cc(N(C)[C@H]2CC[C@@H](N(CC3COCCO3)c3ccc4c(c3)OCCO4)CC2)c2nc(C#N)ccc21 (stereo partly drawn) [Example 183, cis-8-((4-(((1,4-dioxan-2-yl)methyl)(2,3-dihydrobenzo[b][1,4]dioxin-6-yl)amino)cyclohexyl) (methyl)amino)-5-methyl-6-oxo-5,6-dihydro-1,5-naphthyridine-2-carbonitrile] | 0.1 to 1 | 0.1 to 1 |
| Cn1c(=O)c(C#N)c(N(C)[C@H]2CC[C@@H](N(CC3CC3)c3cccc(F)c3)CC2)c2nc(C#N)ccc21 [Example 26, cis-8-((4-((cyclopropylmethyl)(3-fluorophenyl)amino)cyclohexyl)(methyl)amino)-5-methyl-6-oxo-5,6-dihydro-1,5-naphthyridine-2,7-dicarbonitrile] | 0.01 to 0.1 | 0.1 to 1 |
| Cc1cc(F)c(F)cc1N(CC1CCC1)[C@H]1CC[C@H](N(C)c2c(C#N)c(=O)n(C)c3ccc(Cl)nc23)CC1 [Example 137, trans-6-chloro-4-((4-((cyclobutylmethyl)(4,5-difluoro-2-methylphenyl)amino)cyclohexyl)(methyl)amino)-1-methyl-2-oxo-1,2-dihydro-1,5-naphthyridine-3-carbonitrile] | ≥ 1 | ≥ 1 |
| Cn1c(=O)cc(N(C)[C@H]2CC[C@@H](N(CC3CC3)c3cc(F)cc(F)c3)CC2)c2nc(C#N)ccc21 [Example 82] | 0.01 to 0.1 | 0.1 to 1 |
| COc1cc(F)ccc1N(CC1CC1)[C@H]1CC[C@@H](N(C)c2cc(=O)n(C)c3ccc(C#N)nc23)CC1 [Example 3Z, cis-8-[[4-(N-cyclopropylmethyl-N-4-fluoro-2-methoxyphenyl-anilino)cyclohexyl]-methyl-amino]-5-methyl-6-oxo-5,6-dihydro-1,5-naphthyridine-2-carbonitrile] | 0.1 to 1 | 0.1 to 1 |
| Cn1c(=O)c(C#N)c(N(C)[C@H]2CC[C@H](N(CC3CC3)c3ccc(F)c(OC(F)F)c3)CC2)c2nc(C#N)ccc21 [Example 76] | 0.1 to 1 | 0.1 to 1 |
| COc1cc(F)ccc1N(C)[C@H]1CC[C@@H](N(C)c2c(C#N)c(=O)n(C)c3ccc(Cl)nc23)CC1 [Example 45, cis-6-chloro-4-((4-((4-fluoro-2-methoxyphenyl) (methyl)amino)cyclohexyl)(methyl)amino)-1-methyl-2-oxo-1,2-dihydro-1,5-naphthyridine-3-carbonitrile] | 0.01 to 0.1 | 0.1 to 1 |
| COc1cc(F)ccc1N(C)[C@H]1CC[C@@H](N(C)c2c(C#N)c(=O)n(C)c3ccc(C#N)nc23)CC1 [Example 64] | 0.01 to 0.1 | 0.01 to 0.1 |

The remaining lines, values ahead:

| IC50 (DGKα) [µM] | IC50 (DGKζ) [µM] | Compound |
| --- | --- | --- |
| 0.1 to 1 | 0.01 to 0.1 | Cn1c(=O)c(C#N)c(N(C)[C@H]2CC[C@@H](N(CC3CC3)c3ccc4c(c3)OCO4)CC2)c2nc(C#N)ccc21 [Example 61, cis-8-((4-(benzo[d][1,3]dioxol-5-yl(cyclopropylmethyl)amino)cyclohexyl)(methyl)amino)-5-methyl-6-oxo-5,6-dihydro-1,5-naphthyridine-2,7-dicarbonitrile] |
| < 0.01 | 0.01 to 0.1 | Cn1c(=O)c(C#N)c(N(C)[C@H]2CC[C@@H](N(CC3CC3)c3ccc(F)cc3)CC2)c2nc(C#N)ccc21 [Example 30, cis-8-((4-((cyclopropylmethyl)(4-fluorophenyl)amino)cyclohexyl)(methyl)amino)-5-methyl-6-oxo-5,6-dihydro-1,5-naphthyridine-2,7-dicarbonitrile] |
| 0.1 to 1 | 0.1 to 1 | Cc1cc(F)ccc1N(CC1CC1)[C@H]1CC[C@@H](N(C)c2cc(=O)n(C)c3ccc(C#N)nc23)CC1 [Example 144, cis-8-((4-((cyclopropylmethyl)(4-fluoro-2-methylphenyl)amino)cyclohexyl)(methyl)amino)-5-methyl-6-oxo-5,6-dihydro-1,5-naphthyridine-2-carbonitrile] |
| 0.01 to 0.1 | 0.1 to 1 | COc1cccc(N(CC2CC2)[C@H]2CC[C@@H](N(C)c3c(C#N)c(=O)n(C)c4ccc(Cl)nc34)CC2)c1 [Example 11, cis-6-chloro-4-((4-((cyclopropylmethyl)(3-methoxyphenyl)amino)cyclohexyl)(methyl)amino)-1-methyl-2-oxo-1,2-dihydro-1,5-naphthyridine-3-carbonitrile] |
| 0.01 to 0.1 | 0.01 to 0.1 | Cc1cc(F)ccc1N(CC1CC1)[C@H]1CC[C@H](N(C)c2c(C#N)c(=O)n(C)c3ccc(C#N)nc23)CC1 [Example 73, trans-8-((4-((cyclopropylmethyl)(4-fluoro-2-methylphenyl)amino)cyclohexyl)(methyl)amino)-5-methyl-6-oxo-5,6-dihydro-1,5-naphthyridine-2,7-dicarbonitrile] |
| 0.1 to 1 | ≥ 1 | Cn1c(=O)cc(N(C)[C@H]2CC[C@@H](N(CC(C)(C)CO)c3ccc(F)cc3)CC2)c2nc(C#N)ccc21 [Example 194, cis-8-((-4-((4-fluorophenyl)(3-hydroxy-2,2-dimethylpropyl)amino)cyclohexyl)(methyl)amino)-5-methyl-6-oxo-5,6-dihydro-1,5-naphthyridine-2-carbonitrile] |
| 0.1 to 1 | ≥ 1 | COc1cc(N(CC2CC2)[C@H]2CC[C@H](N(C)c3c(C#N)c(=O)n(C)c4ccc(C#N)nc34)CC2)ccc1F [Example 34, trans-8-((4-((cyclopropylmethyl)(4-fluoro-3-methoxyphenyl)amino)cyclohexyl)(methyl)amino)-5-methyl-6-oxo-5,6-dihydro-1,5-naphthyridine-2,7-dicarbonitrile] |
| ≥ 1 | ≥ 1 | CN1Cc2ccc(N(CC3CC3)[C@H]3CC[C@@H](N(C)c4c(C#N)c(=O)n(C)c5ccc(C#N)nc45)CC3)cc2C1=O [Example 204, cis-8-((-4-((cyclopropylmethyl)(2-methyl-3-oxoisoindolin-5-yl)amino)cyclohexyl)(methyl)amino)-5-methyl-6-oxo-5,6-dihydro-1,5-naphthyridine-2,7-dicarbonitrile] |
| 0.01 to 0.1 | 0.01 to 0.1 | Cn1c(=O)c(C#N)c(N(C)[C@H]2CC[C@H](N(CC3CC3)c3ccc(F)c(OC4CC4)c3)CC2)c2nc(C#N)ccc21 [Example 135, trans-8-((-4-((3-cyclopropoxy-4-fluorophenyl) (cyclopropylmethyl)amino)cyclohexyl)(methyl)amino)-5-methyl-6-oxo-5,6-dihydro-1,5-naphthyridine-2,7-dicarbonitrile] |
| 0.1 to 1 | 0.1 to 1 | Cn1c(=O)cc(N(C)[C@H]2CC[C@@H](N(CC3CCC3)c3ccc(F)c(CN4CCOCC4)c3)CC2)c2nc(C#N)ccc21 [Example 175, cis-8-((-4-((cyclobutylmethyl)(4-fluoro-3-(morpholinomethyl)phenyl)amino)cyclohexyl) (methyl)amino)-5-methyl-6-oxo-5,6-dihydro-1,5-naphthyridine-2-carbonitrile] |
